Patent US20030039673A1, “DISINFECTION BY PARTICLE-BOUND AND INS[…]” (priority 1997, published 2003)

Key:
[1] = Detergent binding to resin, foaming of supernatant; format: physicochemical; set-up: key: foaming presence (+); absence (−); conditions: 10 mM detergent solution incubated with resin beads
[2] = Detergent binding to resin, foaming of supernatant; format: physicochemical; set-up: key: foaming presence (+); absence (−); conditions: 10 mM detergent solution incubated with resin beads; remark: listed apart in the source
[3] = Detergent binding to resin, foaming of supernatant; format: physicochemical; set-up: key: foaming presence (+); absence (−); conditions: 10 mM detergent solution incubated with resin beads; remark: listed apart in the source
viruses = conditions: even in the presence of plasma proteins; basis of copending application Ser. No. 08/785,984; cited from earlier work
EMC virus = assay: Viral end point assay of EMC-spiked plasma; format: cell-based

Molecule	foaming of supernatant as indicator of detergent presence, Polystyrene [1]	foaming of supernatant as indicator of detergent presence, Calbiosorb [2]	foaming of supernatant as indicator of detergent presence, Purolite [3]	level effective at inactivating some viruses (viruses)	Titer (EMC virus; 100 mM triclosan in 2% aqueous Triton X-100, 5 mL added to 50 mL EMC-spiked plasma, 60 min room temperature)	virucidal effectiveness compared with Triton plus triclosan (EMC virus; 0.2% Triton alone)	hemolysis (red blood cells (RBC))
C[C@H](CCC(=O)NCCC[N+](C)(C)CCCS(=O)(=O)[O-])[C@H]1CC[C@H]2[C@@H]3[C@H](O)C[C@@H]4C[C@H](O)CC[C@]4(C)[C@H]3C[C@H](O)[C@]12C [CHAPS, 3-[(3-Chloramidopropyl)-dimethylammonio]-1-propanesulfanate]	+	−					
C[C@H](CCC(=O)NCCC[N+](C)(C)CC(O)CS(=O)(=O)[O-])[C@H]1CC[C@H]2[C@@H]3[C@H](O)C[C@@H]4C[C@H](O)CC[C@]4(C)[C@H]3C[C@H](O)[C@]12C (stereo partly drawn) [CHAPSO, 3-[(3-Chloramidopropyl)-dimethylammonio]-2-hydroxyl 1-propanesulfanate]	+	−					
CCCCCCCC(=O)O [Caprylate, caprylic acid]	+	−	−				
C[C@H](CCC(=O)O)[C@H]1CC[C@H]2[C@@H]3[C@H](O)C[C@@H]4C[C@H](O)CC[C@]4(C)[C@H]3C[C@H](O)[C@]12C [Cholate, cholic acid]	+	−	−				
CCCCCCCCOC(=O)CC(C(=O)OCCCCCCCC)S(=O)(=O)O (stereo not drawn) [DSS, dioctyl sulfosuccinate]	+	−	−				
C[C@H](CCC(=O)O)[C@H]1CC[C@H]2[C@@H]3CC[C@@H]4C[C@H](O)CC[C@]4(C)[C@H]3C[C@H](O)[C@]12C [Deoxycholate, deoxycholic acid]	+	−	−				
CCCCCCCCO[C@@H]1O[C@H](CO)[C@@H](O)[C@H](O)[C@H]1O [OG, n-octyl-B-D-glucopyranoside]	+	−	+	about 0.03%			
CCCCCCCCCCCCOS(=O)(=O)[O-].[Na+] [SDS, sodium dodecylsulfate]	+	−	−				
CCCCCCCCCCCCCC[N+](C)(C)C.[Br-] [TTAB, tetradecyltrimethylammonium bromide]	+	−					
Oc1cc(Cl)ccc1Oc1ccc(Cl)cc1Cl [Triclosan, triclosan]					0		
Triton X-100	+	−	+			not nearly effective as Triton plus triclosan	immediate hemolysis
benzalkonium chloride [BC]	+	−					
